How the values were obtained:
human AML MV-4-11 cells = assay: Inhibition of cell proliferation in cancer cell lines (CellTiter Aqueous One); type: cell-based; parameters: key: Active: Compounds with an IC50 value less than 30 μM were deemed to be active.; Not Active: Compounds with an IC50 value less than 30 μM were deemed to be active; settings: 72 h
Procedure: MV4-11 cells: 96-well plates were seeded with 5×10^4 cells per well of exponentially growing human AML MV-4-11 (CRL-9591) cells and immediately treated with two-fold dilutions of test compounds, ranging from 30 μM to 0.2 μM. Triplicate wells were used for each concentration, as well as a media only and three DMSO control wells. The cells and compounds were incubated at 37° C., 5% CO2 for 72 h before adding 20 μL of the CellTiter Aqueous One Solution (Promega) to each well and incubating at 37° C., 5% CO2 for an additional 3-4 h. The absorbance was taken at 490 nm in a spectrophotometer and the percentage of proliferation relative to DMSO-treated cells was calculated after correction from the blank well. IC50 were calculated using the GraphPad Prism software.

[1] = biological target: T1, Brd4 bromodomain 1 (BRD4(1)) (Homo sapiens, UniProt O60885); assay: Inhibition of tetra-acetylated histone H4 binding to BET bromodomains (TR-FRET); parameters: key: Active: Compounds with an IC50 value less than 30 μM were deemed to be active.; Not Active: Compounds with an IC50 value less than 30 μM were deemed to be active; settings: first bromodomain of Brd4, tetra-acetylated histone H4 peptide
T1 construct: made in house; host or cells: E. coli BL21(DE3)
Procedure: Proteins were cloned and overexpressed with a N-terminal 6×His tag, then purified by nickel affinity followed by size exclusion chromatography. Briefly, E. coli BL21(DE3) cells were transformed with a recombinant expression vector encoding N-terminally Nickel affinity tagged bromodomains from Brd2, Brd3, Brd4. Cell cultures were incubated at 37° C. with shaking to the appropriate density and induced overnight with IPTG. The supernatant of lysed cells was loaded onto Ni-IDA column for purification. Eluted protein is pooled, concentrated and further purified by size exclusion chromatography. Fractions representing monomeric protein were pooled, concentrated, aliquoted, and frozen at −80° C. for use in subsequent experiments.
Binding of tetra-acetylated histone H4 and BET bromodomains was confirmed by a Time Resolved Fluorescence Resonance Energy Transfer (TR-FRET) method. N-terminally His-tagged bromodomains (200 nM) and biotinylated tetra-acetylated histone H4 peptide (25-50 nM, Millipore) were incubated in the presence of Europium Cryptate-labeled streptavidin (Cisbio Cat. #610SAKLB) and XL665-labeled monoclonal anti-His antibody (Cisbio Cat. #61HISXLB) in a white 96 well microtiter plate (Greiner). For inhibition assays, serially diluted test compound was added to these reactions in a 0.2% final concentration of DMSO. Final buffer concentrations were 30 mM HEPES pH 7.4, 30 mM NaCl, 0.3 mM CHAPS, 20 mM phosphate pH 7.0, 320 mM KF, 0.08% BSA). After a 2-h incubation at room temperature, the fluorescence by FRET was measured at 665 and 620 nm by a SynergyH4 plate reader (Biotek). The binding inhibitory activity was shown by a decrease in 665 nm fluorescence relative to 620 nm. IC50 values were determined from a dose response curve.

c-myc in MV4-11 cells = assay: Inhibition of c-myc expression in cancer cell lines (mRNA, real-time PCR); type: cell-based, Human; parameters: key: Active: Compounds with an IC50 value less than 30 μM were deemed to be active.; Not Active: Compounds with an IC50 value less than 30 μM were deemed to be active; settings: 3 h
Procedure: MV4-11 cells (2.5×10^4 cells) were plated in 96 well U-bottom plates with test compound or DMSO (0.1%), and incubated for 3 h at 37° C. Cells were then harvested by centrifugation, lysed, and mRNA was isolated using the mRNA catcher plus kit (Invitrogen). Reverse transcription of the mRNA and duplex amplification of the c-myc and cyclophilin cDNAs was performed using the RNA Ultrasense kit (Invitrogen) and a ViiA7 real-time PCR machine (Applied Biosystems). IC50 values were determined from a dose response curve.

hIL-6 mRNA = assay: Inhibition of hIL-6 mRNA transcription in LPS-stimulated U937 macrophages; type: cell-based, human; parameters: key: Active: Compounds with an IC50 value less than 30 μM were deemed to be active.; Not Active: Compounds with an IC50 value less than 30 μM were deemed to be active; settings: U937 cells differentiated with PMA, LPS stimulation, 3 h
Procedure: In this example, hIL-6 mRNA in tissue culture cells was quantitated to measure the transcriptional inhibition of hIL-6 when treated with a compound of the present disclosure.
A human leukemic monocyte lymphoma cell line (U937) was plated (3.2×10^4 cells per well) in a 96-well plate in 100 μL RPMI-1640 containing 10% FBS and penicillin/streptomycin, and differentiated into macrophages for 3 days in 60 ng/mL PMA ([…]) at 37° C. in 5% CO2 prior to the addition of the compound of interest. The cells were pretreated for 1 h with the test compound prior to stimulation with 1 ug/mL lipopolysaccharide from Escherichia coli. The cells were incubated at 37° C. for 3 h before the cells were harvested. At time of harvest, the spent media was removed from the cells and the cells were rinsed in 200 μL PBS. Cell lysis solution (70 μL) was added the cells in each well and incubated for 5-10 min at room temperature, to allow for complete cell lysis and detachment. mRNA was then prepared using the “mRNA Catcher PLUS plate” (Invitrogen), according to the protocol supplied. After the last wash, as much wash buffer as possible was aspirated without allowing the wells to dry. Elution buffer (E3, 70 μL) was then added to each well. mRNA was then eluted by incubating the mRNA Catcher PLUS plate with Elution Buffer for 5 min at 68° C. and then immediately placing the plate on ice.
The eluted mRNA isolated was then used in a one-step quantitative real-time PCR reaction, using components of the Ultra Sense Kit together with Applied Biosystems primer-probe mixes. Real-time PCR data was analyzed, normalizing the Ct values for hIL-6 to an internal control, prior to determining the fold induction of each unknown sample, relative to the control.

| Cell Proliferation activity (IC50 < 30 μM) (human AML MV-4-11 cells) | FRET activity BRD4(1) [1] | melting point [°C] | c-myc activity (IC50 < 30 μM) (c-myc in MV4-11 cells) | IL-6 activity (IC50 < 30 μM) (hIL-6 mRNA) | Structure (SMILES) |
| --- | --- | --- | --- | --- | --- |
|  | Active | 207 to 209 | Active |  | COc1ccc(-c2nc3cc(OC)cc(OC)c3c(=O)[nH]2)c(NCC2CCCN2C(C)C)c1 (stereo not shown) [Example 17, 2-(2-(((1-Isopropylpyrrolidin-2-yl)methyl)amino)-4-methoxyphenyl)-5,7-dimethoxyquinazolin-4(3H)-one] |
| Active | Active | 220 to 222 | Active |  | COc1ccc(-c2nc3cc(OC)cc(OC)c3c(=O)[nH]2)c(NCCCN2CCN(C)CC2)c1 [Example 21] |
| Active | Active | 207 to 208 |  |  | COc1cnc(-c2nc3cc(OC)cc(OC)c3c(=O)[nH]2)c(NC2CCN(C(C)C)CC2)c1 [Example 30, 2-(3-((1-Isopropylpiperidin-4-yl)amino)-5-methoxypyridin-2-yl)-5,7-dimethoxyquinazolin-4(3H)-one] |
|  | Active |  |  | Active | COc1cc(OC)c2c(=O)[nH]c(-c3ncc(OCCNC4CCN(C(C)C)CC4)cc3NC3CCN(C(C)C)CC3)nc2c1 [Example 50, 2-(3-((1-Isopropylpiperidin-4-yl)amino)-5-(2-((1-isopropylpiperidin-4-yl)amino)ethoxy)pyridin-2-yl)-5,7-dimethoxyquinazolin-4(3H)-one] |
| Active | Active | 178 to 181 | Active |  | COc1cc(OC)c2c(=O)[nH]c(-c3ncc(OCCNC(C)C)cc3NC3CCN(C(C)C)CC3)nc2c1 [Example 67, 2-{5-[2-(Isopropylamino)ethoxy]-3-(1-isopropylpiperidin-4-ylamino)pyridin-2-yl}-5,7-dimethoxyquinazolin-4(3H)-one] |

The remaining lines, values behind:

| Structure (SMILES) | Cell Proliferation activity (IC50 < 30 μM) (human AML MV-4-11 cells) | FRET activity BRD4(1) [1] | melting point [°C] | c-myc activity (IC50 < 30 μM) (c-myc in MV4-11 cells) | IL-6 activity (IC50 < 30 μM) (hIL-6 mRNA) |
| --- | --- | --- | --- | --- | --- |
| COc1ccc(-c2nc3cc(OC)cc(OC)c3c(=O)[nH]2)c(NCCN2CCOCC2)c1 [Example 14, 5,7-Dimethoxy-2-(4-methoxy-2-((2-morpholinoethyl)amino)phenyl)-quinazolin-4(3H)-one] | Not Active | Active | 239 to 240 |  |  |
| COc1ccc(-c2nc3cc(OC)cc(OC)c3c(=O)[nH]2)c(NCCCN2CCCC2)c1 [Example 15, 5,7-Dimethoxy-2-(4-methoxy-2-((3-(pyrrolidin-1-yl)propyl)amino)phenyl)quinazolin-4(3H)-one] | Active | Active |  | Active |  |
| COc1ccc(-c2nc3cc(OC)cc(OC)c3c(=O)[nH]2)c(NCC2CCN(C(C)C)C2)c1 (stereo not shown) [Example 16, 2-(2-(((1-Isopropylpyrrolidin-3-yl)methyl)amino)-4-methoxyphenyl)-5,7-dimethoxyquinazolin-4(3H)-one] | Active | Active | 228 to 230 | Active |  |
| COc1ccc(-c2nc3cc(OC)cc(OC)c3c(=O)[nH]2)c([S+]([O-])C2CCN(C)CC2)c1 (stereo not shown) [Example 23, 5,7-Dimethoxy-2-[4-methoxy-2-(1-methylpiperidin-4-ylsulfinyl)phenyl]quinazolin-4(3H)-one] | Not Active | Active | 263 to 265 |  |  |
| COc1cc(OC)c2c(=O)[nH]c(-c3ncccc3NC3CCN(C(=O)N(C)C)CC3)nc2c1 [Example 42, 4-((2-(5,7-Dimethoxy-4-oxo-3,4-dihydroquinazolin-2-yl)pyridin-3-yl)amino)-N,N-dimethylpiperidine-1-carboxamide] | Active | Active | 195 to 197 | Active |  |
| COc1cc(OC)c2c(=O)[nH]c(-c3ncccc3NC3CCN(CC(C)(C)O)CC3)nc2c1 [Example 59, 2-(3-((1-(2-Hydroxy-2-methylpropyl)piperidin-4-yl)amino)pyridin-2-yl)-5,7-dimethoxyquinazolin-4(3H)-one] | Active | Active | 220 to 221 | Active |  |
| COc1ccc(CNc2cc(OC)c3c(=O)[nH]c(-c4ncccc4NC4CCN(C(C)C)CC4)nc3c2)cc1 [Example 61, 2-(3-((1-Isopropylpiperidin-4-yl)amino)pyridin-2-yl)-5-methoxy-7-((4-methoxybenzyl)amino)quinazolin-4(3H)-one] | Active | Active | 220 to 222 | Active |  |
| COc1cc(OC)c2c(=O)[nH]c(-c3ncc(OCCO)cc3NC3CCN(C(C)C)CC3)nc2c1 [Example 62, 2-[5-(2-Hydroxyethoxy)-3-(l-isopropylpiperidin-4-ylamino)pyridin-2-yl]-5,7-dimethoxyquinazolin-4(3H)-one] | Active | Active | 231 to 233 | Active |  |
| COc1cc(OC)c2c(=O)[nH]c(-c3ncccc3N[C@H]3CC[C@@H](C(=O)NC(C)C)CC3)nc2c1 [Example 63, cis-4-((2-(5,7-Dimethoxy-4-oxo-3,4-dihydroquinazolin-2-yl)pyridin-3-yl)amino)-N-isopropylcyclohexane-1-carboxamide] | Not Active | Active | 256 to 257 |  |  |
| COc1cc(OC)c2c(=O)[nH]c(-c3ncc(OCCN4CCCC4)cc3NC3CCN(C(C)C)CC3)nc2c1 [Example 66, 2-{3-(1-Isopropylpiperidin-4-ylamino)-5-[2-(pyrrolidin-1-yl)ethoxy]pyridin-2-yl}-5,7-dimethoxyquinazolin-4(3H)-one] | Active | Active | 166 to 169 | Active |  |
